Source: EP4445909B1, “PHARMACEUTICAL FORMULATION CONSISTING OF C-PEPTIDE COMBINED WITH A BISPHOSPHONATE IN A SINGLE FORM AND ITS USE IN THE TREATMENT OF OSTEOSARCOPENIA” (Università Degli Studi Magna Graecia di Catanzaro, priority 2023, dated 2026)

Tests used:
Type in all cases: in vivo
[1] = tested on: muscle fibers of the Gastrocnemius (GC), Thiabialis (TA) and the long finger extensor muscle (EDL); experiment: Muscle fibre morphometry (CSA, perimeter, Minimum Feret diameter) after C-Peptide administration in diabetic rats; details: 72 nmol/kg/24 h for 42 days
Experimental: The experimental tests carried out by the Applicant have shown that the administration of 72 nmol/kg/24 h of C-Peptide for 42 days improves the cross-sectional area (CSA), the perimeter and the Minimum Feret diameter of the muscle fibers of the Gastrocnemius (GC), Thiabialis (TA) and the long finger extensor muscle (EDL) in diabetic rats. Specifically, the mean CSA of the GC fibers decreased by 39.5% in the diabetic group, while only 6.6% in the rats of the C-peptide group. The CSA of the TA and EDL muscles was reduced, in the C-peptide group, by 10% and 11%, respectively, while a reduction of 65% and 45% occurred in the diabetic group, compared to the control animals. Similar results were obtained with the other parameters (perimeter and Minimum Feret diameter).

serum ubiquitin = experiment: Serum ubiquitin in diabetic rats after C-peptide administration; details: 72 nmol/kg/24 h for 42 days
bone = experiment: Micro-CT of trabecular bone in diabetic rats after C-peptide administration; details: 72 nmol/kg/24 h, compared to the diabetes only group (D-CTR)

## C-peptide
[1]
  cross-sectional area (CSA), perimeter and Minimum Feret diameter of the muscle fibers of GC, TA and EDL: improves
[1]; Gastrocnemius, diabetic group decreased by 39.5%
  mean CSA of the GC fibers decreased: 6.6%
[1]; compared to the control animals, diabetic group 45%
  CSA of the EDL muscle reduced: 11%
[1]; compared to the control animals, diabetic group 65%
  CSA of the TA muscle reduced: 10%
Serum ubiquitin
  serum ubiquitin, induced by diabetes: prevents the increase
bone; p=0.01
  trabecular spaces: reduction
bone; p=0.04
  trabecular thickness: better
